Laboratory results published in article PMC5951806, “Rapid labelling and covalent inhibition of intracellular native proteins using ligand-directed N-acyl-N-alkyl sulfonamide” (Nature Communications, 2018).

Legend:
Assay in all cases: TMT LC-MSMS of 11-labelled proteins
protein MAL2 (MAL2) = protein MAL2 (MAL2) (Homo sapiens, UniProt Q969L2); type: cell-based
Excerpt: (§1) Supplement 41467_2018_4343_MOESM4_ESM.xlsx, sheet "Exp2" | column: Abundance Ratio: (11) / (11 with PU-H71); Abundance Ratio: (11) / (DMSO); Abundances (Grouped): 11; Abundances (Grouped): 11 with PU-H71

[1] = molecular target: Dolichyl-diphosphooligosaccharide--protein glycosyltransferase subunit 1 (RPN1) (Homo sapiens, UniProt P04843); type: cell-based
Chain of Dolichyl-diphosphooligosaccharide--protein glycosyltransferase subunit 1 (RPN1) (P04843 24-607): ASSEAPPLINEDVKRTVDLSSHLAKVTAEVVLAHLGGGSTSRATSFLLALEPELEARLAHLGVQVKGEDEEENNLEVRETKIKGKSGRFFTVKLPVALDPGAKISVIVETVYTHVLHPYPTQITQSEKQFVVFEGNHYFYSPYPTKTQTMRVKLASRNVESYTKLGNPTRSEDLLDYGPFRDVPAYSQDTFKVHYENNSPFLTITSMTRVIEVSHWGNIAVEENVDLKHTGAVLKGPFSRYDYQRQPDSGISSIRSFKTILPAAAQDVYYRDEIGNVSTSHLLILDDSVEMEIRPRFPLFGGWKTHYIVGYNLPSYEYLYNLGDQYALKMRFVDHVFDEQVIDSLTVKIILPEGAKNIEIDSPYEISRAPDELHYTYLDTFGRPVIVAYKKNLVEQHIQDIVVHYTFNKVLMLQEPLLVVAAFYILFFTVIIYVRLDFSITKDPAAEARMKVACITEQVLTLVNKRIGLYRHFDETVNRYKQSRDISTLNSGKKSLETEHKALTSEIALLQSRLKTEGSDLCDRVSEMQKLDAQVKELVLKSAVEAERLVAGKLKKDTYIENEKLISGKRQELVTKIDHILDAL
Chain of Dolichyl-diphosphooligosaccharide--protein glycosyltransferase subunit 1 (RPN1) (P39656 43-456 partner): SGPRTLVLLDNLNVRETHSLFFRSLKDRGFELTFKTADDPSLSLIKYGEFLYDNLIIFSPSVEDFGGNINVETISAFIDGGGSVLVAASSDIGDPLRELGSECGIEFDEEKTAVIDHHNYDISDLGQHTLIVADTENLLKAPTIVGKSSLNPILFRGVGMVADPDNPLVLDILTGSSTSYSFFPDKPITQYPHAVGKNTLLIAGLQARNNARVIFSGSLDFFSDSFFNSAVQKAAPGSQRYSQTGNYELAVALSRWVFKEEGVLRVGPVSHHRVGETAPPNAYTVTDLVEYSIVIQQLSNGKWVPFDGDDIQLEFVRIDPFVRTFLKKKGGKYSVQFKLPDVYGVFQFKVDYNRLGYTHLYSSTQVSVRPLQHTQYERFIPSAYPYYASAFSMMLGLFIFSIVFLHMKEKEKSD
Chain of Dolichyl-diphosphooligosaccharide--protein glycosyltransferase subunit 1 (RPN1) (P04844 23-631 partner): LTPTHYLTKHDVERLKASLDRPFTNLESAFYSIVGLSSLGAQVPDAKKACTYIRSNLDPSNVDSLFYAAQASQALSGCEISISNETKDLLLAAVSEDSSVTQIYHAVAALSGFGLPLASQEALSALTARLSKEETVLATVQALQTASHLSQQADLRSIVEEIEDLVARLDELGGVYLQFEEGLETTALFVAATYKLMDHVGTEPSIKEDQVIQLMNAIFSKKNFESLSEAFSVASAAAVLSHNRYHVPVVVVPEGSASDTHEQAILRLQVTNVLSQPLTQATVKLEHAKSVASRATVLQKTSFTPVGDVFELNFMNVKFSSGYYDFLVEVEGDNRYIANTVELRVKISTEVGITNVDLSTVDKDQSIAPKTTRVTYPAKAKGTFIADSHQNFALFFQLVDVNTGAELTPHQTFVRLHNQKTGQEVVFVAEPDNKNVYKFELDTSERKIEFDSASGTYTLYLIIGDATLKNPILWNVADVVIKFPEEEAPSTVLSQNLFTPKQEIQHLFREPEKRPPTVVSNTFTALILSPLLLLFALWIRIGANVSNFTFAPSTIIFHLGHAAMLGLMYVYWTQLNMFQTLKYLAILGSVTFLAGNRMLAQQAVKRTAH
Chain of Dolichyl-diphosphooligosaccharide--protein glycosyltransferase subunit 1 (RPN1) (P61803 whole entry partner): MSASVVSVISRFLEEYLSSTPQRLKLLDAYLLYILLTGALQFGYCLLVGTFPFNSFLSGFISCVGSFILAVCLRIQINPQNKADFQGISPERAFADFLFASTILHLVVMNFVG
Chain of Dolichyl-diphosphooligosaccharide--protein glycosyltransferase subunit 1 (RPN1) (P61165 whole entry partner): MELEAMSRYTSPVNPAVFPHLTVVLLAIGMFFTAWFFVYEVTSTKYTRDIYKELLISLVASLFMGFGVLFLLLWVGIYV
Chain of Dolichyl-diphosphooligosaccharide--protein glycosyltransferase subunit 1 (RPN1) (P0C6T2 whole entry partner): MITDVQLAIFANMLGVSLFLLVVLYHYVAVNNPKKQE
Excerpt: as §1

[2] = test system: Isoform Long of Glucose-6-phosphate 1-dehydrogenase (G6PD); type: cell-based, Homo sapiens
Excerpt: (§2) The labelled proteins were enriched by immunoprecipitation with an anti-fluorescein antibody and tryptically digested in gel. Digested peptides were modified with Light- (L-), Medium- (M-), or Heavy- (H-) TMT reagent for samples treated with 11, 11 with PU-H71 (as competitive condition), or DMSO (vehicle), respectively, and mixed in a 1:1:1 ratio for LC-MSMS analysis. We performed three experimental replicates, in which proteins detected and quantified at least twice were selected as identified proteins. According to the related approach of Cravatt et al[44], the proteins having L/H (11/DMSO) ratios >5 were defined as 11-labelled proteins. […] On the basis of these criteria, we identified 6 proteins that react with 11, including three ligand-specific targets (Hsp90α (HSP90AA1), Hsp90β (HSP90AB1), and Grp94 (HSP90B1)) and three off-targets (Trifunctional enzyme subunit α (HADHA), Tubulin-α (TUBA1B), and ADP/ATP translocase 3 (SLC25A6)) (Fig. 5d, e and Supplementary Data 1). […] Grp94, a HSP90 isomer, was previously reported to be a PU-H71 specific target. TRAP-1, another Hsp90 isomer that can bind PU-H71, on the other hand, was not identified as 11-target by our criteria.
(§3) SKBR3 human breast cancer cells (2.0 × 10^6 cells) were seeded on a 10 cm dish and cultured for 3 days in McCoy’s 5A in a 5% CO2 humidified chamber at 37 °C. […] As competitive experiments, the labelling was conducted in the presence of PU-H71 (10 µM). After labelling, the cells were washed twice with PBS, and lysed with RIPA buffer. […] The supernatant was mixed with chilled acetone and incubated overnight at −80 °C. The protein precipitates were solubilized by sonication in 1 mL of RIPA buffer containing 1% SDS, and then 10-fold diluted with RIPA buffer to reduce SDS concentration to c.a. 0.1%. The protein solution (containing 1 mg of protein) was mixed with Protein G Sepharose 4 Fast Flow (GE Healthcare) and rotated at 4 °C for 1 h. After removal of the beads, the remaining supernatant was mixed with anti-fluorescein antibody (Abcam, ab19491, 7:10000) and rotated at 4 °C for 1 h, followed by addition of fresh Protein G Sepharose 4 Fast Flow and further incubation at 4 °C for 4 h. The beads were washed five times with RIPA buffer and once with PBS. Proteins were eluted from the beads by addition of 2 × sample buffer containing 100 mM DTT and boiling at 95 °C for 5 min. The samples were subjected to a 7.5% SDS–PAGE gel (Mini-PROTEAN TGX Gels, BioRad), and electrophoresed as the migration distance of dye front is about 10 mm. Each lane was excised (height, 10 mm), and treated with a 47.5% methanol / 47.5% pure water / 5% acetic acid for 20 min, a 50% methanol / 50% pure water for 10 min, and in pure water for 10 min. The gel pieces were dehydrated with 100% acetonitrile, and then swelled with 200 μL of 100 mM TEAB (triethylamine bicarbonate) buffer containing 10 mM DTT and heated at 56 °C for 30 min. The solutions were replaced with 200 µL of 100 mM TEAB buffer containing 55 mM iodoacetamide and incubated for 45 min in the dark. The gel pieces were washed with 100 mM TEAB buffer and dehydrated in acetonitrile. This step was repeated once. The gels were reswelled in 100 mM TEAB buffer containing 10 ng/μL Sequencing Grade Trypsin (Promega) and incubated overnight at 37 °C. To the gels, 50 μL of an extraction solution (50% acetonitrile, 0.1% TFA) was added. After 10 min incubation, the supernatants were collected to new tubes, and this process was repeated twice. Extracted peptides were dried in vacuo and reconstituted with 25 μL of 100 mM TEAB buffer.

[3] = test system: Isoform 2 of Transketolase (TKT); type: cell-based, Homo sapiens
Excerpt: as §2, §3

[4] = test system: Isoform 4 of 4F2 cell-surface antigen heavy chain (SLC3A2); type: cell-based, Homo sapiens
Excerpt: as §2, §3

[5] = sheet Exp1, SKBR3 cells, 11 0.5 µM 3 h vs DMSO
[6] = sheet Exp1, SKBR3 cells, 11 0.5 µM 3 h vs with PU-H71 10 µM
[7] = sheet Merged, SKBR3 cells, 11 0.5 µM 3 h vs DMSO
[8] = sheet Merged, SKBR3 cells, 11 0.5 µM 3 h vs with PU-H71 10 µM

Chain of protein MAL2 (MAL2) (Q969L2 whole entry): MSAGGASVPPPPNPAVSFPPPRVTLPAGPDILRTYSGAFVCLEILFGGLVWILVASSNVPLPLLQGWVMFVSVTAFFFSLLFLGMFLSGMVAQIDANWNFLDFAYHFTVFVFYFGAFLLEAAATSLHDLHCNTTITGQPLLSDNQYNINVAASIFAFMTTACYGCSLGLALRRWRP

CC(=O)Oc1ccc2c(c1)Oc1cc(OC(C)=O)ccc1C21OC(=O)c2cc(C(=O)NCCOCCOCCNC(=O)CCCC(=O)N(CC#N)S(=O)(=O)c3ccc(C(=O)NCCCn4c(Sc5cc6c(cc5I)OCO6)nc5c(N)ncnc54)cc3)ccc21 [compound 11]
Abundance Ratio: (11) / (11 with PU-H71) (protein MAL2 (MAL2); sheet Exp2): 0.886
Abundance Ratio: (11) / (DMSO) (protein MAL2 (MAL2); sheet Exp2): 3.449
Abundances (Grouped): 11 (protein MAL2 (MAL2); sheet Exp2): 114.5
Abundances (Grouped): 11 with PU-H71 (protein MAL2 (MAL2); sheet Exp2, with PU-H71): 129.3
Abundance Ratio: (11) / (11 with PU-H71) ([1]; sheet Exp2): 0.909
Abundance Ratio: (11) / (DMSO) ([1]; sheet Exp2): 2.785
Abundances (Grouped): 11 ([1]; sheet Exp2): 47.9
Abundances (Grouped): 11 with PU-H71 ([1]; sheet Exp2, with PU-H71): 52.7
Abundance Ratio: (11) / (DMSO) [2, 5]: 6.472
Abundance Ratio: (11) / (11 with PU-H71) [2, 6]: 0.948
Abundance Ratio: (11) / (11 with PU-H71) ([2]; sheet Exp2, G6PD): 0.848
Abundance Ratio: (11) / (DMSO) ([2]; sheet Exp2, G6PD): 1.663
Abundances (Grouped): 11 ([2]; sheet Exp2, G6PD): 63.2
Abundances (Grouped): 11 with PU-H71 ([2]; sheet Exp2, G6PD, with PU-H71): 74.5
Abundance Ratio: (11) / (DMSO) [2, 7]: 3.281
Abundance Ratio: (11) / (11 with PU-H71) [2, 8]: 0.897
Abundance Ratio: (11) / (11 with PU-H71) ([3]; Exp3, TKT): 0.724
Abundance Ratio: (11) / (DMSO) ([3]; Exp3, TKT): 1.695
Abundances (Grouped): 11 ([3]; Exp3, TKT): 45.6
Abundances (Grouped): 11 with PU-H71 ([3]; Exp3, TKT): 63
Abundance Ratio: (11) / (DMSO) [3, 5]: 2.131
Abundance Ratio: (11) / (11 with PU-H71) [3, 6]: 0.917
Abundance Ratio: (11) / (11 with PU-H71) ([3]; sheet Exp2, TKT): 0.939
Abundance Ratio: (11) / (DMSO) ([3]; sheet Exp2, TKT): 2.163
Abundances (Grouped): 11 ([3]; sheet Exp2, TKT): 103.4
Abundances (Grouped): 11 with PU-H71 ([3]; sheet Exp2, TKT): 110.1
Abundance Ratio: (11) / (DMSO) [3, 7]: 2.131
Abundance Ratio: (11) / (11 with PU-H71) [3, 8]: 0.917
Abundance Ratio: (11) / (11 with PU-H71) ([4]; Exp3, SLC3A2): 0.823
Abundance Ratio: (11) / (DMSO) ([4]; Exp3, SLC3A2): 3.728
Abundances (Grouped): 11 ([4]; Exp3, SLC3A2): 115.2
Abundances (Grouped): 11 with PU-H71 ([4]; Exp3, SLC3A2): 140
Abundance Ratio: (11) / (DMSO) [4, 5]: 3.951
Abundance Ratio: (11) / (11 with PU-H71) [4, 6]: 0.737
Abundance Ratio: (11) / (11 with PU-H71) ([4]; sheet Exp2, SLC3A2): 0.802
Abundance Ratio: (11) / (DMSO) ([4]; sheet Exp2, SLC3A2): 3.119
Abundances (Grouped): 11 ([4]; sheet Exp2, SLC3A2): 91.7
Abundances (Grouped): 11 with PU-H71 ([4]; sheet Exp2, SLC3A2): 114.4
Abundance Ratio: (11) / (DMSO) [4, 7]: 3.119
Abundance Ratio: (11) / (11 with PU-H71) [4, 8]: 0.802
